Where two headings read alike, the source gives them in different places.
How the values were obtained:
[1] = Specificity of the anion for Cs^+ in aqueous solution; details: versus other cations
From the text: For [H2NB2(C6F5)6]^− and [(H3O2)B2(C6F5)6]^− the process appears 100% specific for cesium so that cesium is quantitatively and exclusively separated from all other cations in the aqueous solution. Thus, a single and fully selective separation step is necessary only to separate cesium from the other components in the form of the intermediate Cs[L]. In a second step, intermediate Cs[L] is converted into the desired product CsA, allowing recycling of [L].
The interest of the inventors in weakly coordinating anions (WCAs) has led them to synthesize the new cesium salt, Cs[H2NB2(C6F5)6] (2). The inventors realized that (2) is insoluble in water and that it is instantaneously formed by mixing any aqueous solution containing Cs^+ with virtually any source of the [H2NB2(C6F5)]^− anion. The reaction is 100% specific for Cs^+, since only in this case [H2NB2(C6F5)6]^− changes its usual asymmetric conformation to an “inverse C2 symmetric” conformation to form a specific 3D lattice.

[2] = Solubility of the salts in water and organic solvents; type: physicochemical
[3] = Isolation of 2 from water containing other metal salts; details: 450 mL water with CsCl 5·10^−5 mol/L plus KCl, PbCl2, CrCl3, CaCl2, FeCl3; reagent c≈4.75·10^−5 M
Protocol: To a water solution (450 mL), containing the inorganic salts listed below, was added [Na(OEt2)3][H2NB2(C6F5)6] (27.5 mg, 0.0214 mmol; FW=1285.4; c≈4.75·10^−5 M) and the suspension was stirred overnight. A brown precipitate resulted (color presumably arising from Fe(OH)3) which was filtered off and was washed with dichloromethane to extract 2. The solvent of the extract was evaporated to dryness to leave a colorless residue: yield 19.2 mg of 2 (0.0163 mmol, 76%; FW=1172.9), identified by comparison of the IR spectrum with that of pure 2.
List of Added Inorganic Salts

[4] = Isolation of Cs[H2NB2(C6F5)6] (2) from neat water containing CsCl
Protocol: [Na(OEt2)3][H2NB2(C6F5)6] (69.6 mg, 0.0541 mmol; FW=1285.4; c≈0.9·10^−4 M) was dissolved in 570 mL of water. CsCl (9.5 mg, 0.0564 mmol; FW=168.4) was added and after brief mixing the clear solution was left unstirred. Soon colorless crystals began to separate. The mixture was left overnight and the precipitate was isolated by filtration; yield of 2 42.1 mg (0.0359 mmol, 66%; FW=1172.9). The aqueous mother liquor was extracted once with 20 mL of CH2Cl2. Evaporation of the solvent gave an additional crop of 20 mg (0.0170 mmol, 32%). Total isolated yield was 62.1 mg (0.053 mmol; 98%). The IR spectra of the isolated solids were identical with that of pure Cs[H2NB2(C6F5)6] (2).

[5] = in vivo; cited from earlier work
[6] = PB therapy, cited from earlier work

Fc1c(F)c(F)c([B-]([NH2+][B-](c2c(F)c(F)c(F)c(F)c2F)(c2c(F)c(F)c(F)c(F)c2F)c2c(F)c(F)c(F)c(F)c2F)(c2c(F)c(F)c(F)c(F)c2F)c2c(F)c(F)c(F)c(F)c2F)c(F)c1F [[H2NB2(C6F5)6]^−]
specificity for cesium [1]: 100%

Fc1c(F)c(F)c([B-](c2c(F)c(F)c(F)c(F)c2F)(c2c(F)c(F)c(F)c(F)c2F)c2c(F)c(F)c(F)c(F)c2F)c(F)c1F.[Cs+] [Compound 7, Cs[B(C6F5)4]]
solubility in water [2]: insoluble

Cs[(C6F5)3B(OH2)—(HO)B(C6F5)3] [Compound 5]
solubility in water [2]: water insoluble
solubility in water ([2]; listed as Cs[H(OH)2B2(C6F5)6]): insoluble

Fc1c(F)c(F)c([B-]([NH2+][B-](c2c(F)c(F)c(F)c(F)c2F)(c2c(F)c(F)c(F)c(F)c2F)c2c(F)c(F)c(F)c(F)c2F)(c2c(F)c(F)c(F)c(F)c2F)c2c(F)c(F)c(F)c(F)c2F)c(F)c1F.[Cs+] [Compound 2, Cs[H2NB2(C6F5)6]]
solubility in CH2Cl2, THF, chloroform, Et2O and toluene ([2]; CH2Cl2, THF and solvents of low dielectric constant): dissolves well
solubility in MeOH ([2]; MeOH): only limited soluble
solubility in alkanes ([2]; alkanes): virtually insoluble
solubility in water [2]: virtually insoluble
solubility in water ([2]; listed as Cs[H2NB2(C6F5)6]): insoluble

Fc1c(F)c(F)c([B-](c2c(F)c(F)c(F)c(F)c2F)(c2c(F)c(F)c(F)c(F)c2F)c2c(F)c(F)c(F)c(F)c2F)c(F)c1F.[Tl+] [Compound 9, Tl[B(C6F5)4], reference compound]
solubility in water [2]: water insoluble

Fc1c(F)c(F)c([B-](c2c(F)c(F)c(F)c(F)c2F)(c2c(F)c(F)c(F)c(F)c2F)c2c(F)c(F)c(F)c(F)c2F)c(F)c1F.[Rb+] [Compound 8, Rb[B(C6F5)4]]
solubility in water [2]: water insoluble

CCOCC.CCOCC.CCOCC.Fc1c(F)c(F)c([B-]([NH2+][B-](c2c(F)c(F)c(F)c(F)c2F)(c2c(F)c(F)c(F)c(F)c2F)c2c(F)c(F)c(F)c(F)c2F)(c2c(F)c(F)c(F)c(F)c2F)c2c(F)c(F)c(F)c(F)c2F)c(F)c1F.[Na+] [[Na(OEt2)3][H2NB2(C6F5)6]]
yield of 2 isolated from water containing other metal salts [3]: 76%
yield of 2 precipitated from water ([4]; neat water 570 mL, reagent c≈0.9·10^−4 M, overnight, filtration): 66%
total isolated yield of 2 ([4]; neat water, precipitate plus one CH2Cl2 extraction of the mother liquor): 98%

[C-]#N.[C-]#N.[C-]#N.[C-]#N.[C-]#N.[C-]#N.[C-]#N.[C-]#N.[C-]#N.[C-]#N.[C-]#N.[C-]#N.[C-]#N.[C-]#N.[C-]#N.[C-]#N.[C-]#N.[C-]#N.[Fe+2].[Fe+2].[Fe+2].[Fe+3].[Fe+3].[Fe+3].[Fe+3] [Prussian blue, ferric hexacyanoferrate]
absorption by the body via the bowels [5]: not absorbed by the body via the bowels to a noticeable extent
biological half-life of retention of cesium ([6]; adolescents): ~30 days
biological half-life of retention of cesium ([6]; adults): approximately 26 days
biological half-life of retention of cesium ([6]; children): ~24 days

[(H3O2)B2(C6F5)6]^−
specificity for cesium [1]: 100%

— patent US11279715B2, “Process for removing radioactive isotopes from aqueous fluids by fluorine containing reagents, fluorine containing, water-insoluble salts of the radioactive isotopes, and their use as therapeutic agents” (priority 2016, dated 2022)
